What all share (assay type): biochemical
The target of one experiment is TYK2 (Homo sapiens, UniProt P29597). Description: TYK2 kinase inhibition (Table A1).
The target of experiment [1] is T1, human JAK1 (a.a. 837-1142) (Homo sapiens, UniProt P23458).
T1 construct: human JAK1 (a.a. 837-1142); His tag (N); made in house; host or cells: insect cells (baculovirus)
Description: In vitro JAK kinase assay (HTRF, phosphorylation of a biotinylated peptide), JAK1. The settings on record: read-out: JAK1 IC50. Put shortly:
(§1)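 Kinase activity was measured as phosphorylation of a biotinylated peptide, with ATP at 90 μM for JAK1, 30 μM for JAK2 and 3 μM for JAK3. Reactions ran 1 hr at room temperature, were stopped with EDTA plus SA-APC and Eu-Py20, and were read by HTRF after 40 minutes of antibody binding.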

The target of experiment [2] is T2, human JAK3 (a.a. 781-1124) (Homo sapiens, UniProt P52333).
T2 construct: JAK3 (a.a. 781-1124); His tag (N); made in house; host or cells: insect cells (baculovirus)
T2 sequence (P52333 781-1124): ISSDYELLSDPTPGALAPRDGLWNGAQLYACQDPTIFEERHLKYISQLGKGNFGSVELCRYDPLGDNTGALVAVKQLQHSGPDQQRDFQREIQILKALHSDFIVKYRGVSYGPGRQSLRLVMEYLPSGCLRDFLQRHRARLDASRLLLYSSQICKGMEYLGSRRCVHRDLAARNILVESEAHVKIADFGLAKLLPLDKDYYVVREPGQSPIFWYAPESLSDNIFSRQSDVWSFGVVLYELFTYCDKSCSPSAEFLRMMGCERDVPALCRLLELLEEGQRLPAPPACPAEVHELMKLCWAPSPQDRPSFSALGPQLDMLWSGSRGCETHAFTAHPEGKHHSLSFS
Description: In vitro JAK kinase assay (HTRF, phosphorylation of a biotinylated peptide), JAK3. Put shortly: as §1
A general note: TR-FRET usually uses a lanthanide donor and a delayed reading to cut background.

Experiment [3] deals with T3, human JAK2 (a.a. 828-1132) (Homo sapiens, UniProt O60674).
T3 construct: JAK2 (a.a. 828-1132); His tag (N); made in house; host or cells: insect cells (baculovirus)
T3 sequence (O60674 828-1132): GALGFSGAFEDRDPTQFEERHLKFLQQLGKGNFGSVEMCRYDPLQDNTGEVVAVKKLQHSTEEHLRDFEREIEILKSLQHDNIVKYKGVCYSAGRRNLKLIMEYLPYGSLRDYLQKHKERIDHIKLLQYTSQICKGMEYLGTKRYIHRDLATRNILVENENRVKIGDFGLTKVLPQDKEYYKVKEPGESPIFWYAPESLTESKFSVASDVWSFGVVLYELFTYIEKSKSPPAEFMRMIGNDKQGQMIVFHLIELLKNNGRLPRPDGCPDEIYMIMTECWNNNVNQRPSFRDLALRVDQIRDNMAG
Description: In vitro JAK kinase assay (HTRF, phosphorylation of a biotinylated peptide), JAK2. The method in brief:
as §1

Experiment [4] addresses T4, Recombinant Human Anaplastic Lymphoma Kinase (Homo sapiens, UniProt Q9UM73).
T4 construct: purchased Invitrogen, Carlsbad, Calif
Description: ALK HTRF kinase assay. The method in brief:
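Biotinylated peptide substrate, recombinant human ALK; detection via europium-chelate antibody to phosphotyrosine paired with streptavidin-APC. Potency expressed as IC50 from four-parameter curve fitting.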

[5] abbreviates: compound at a concentration of 500 nM or 1 mM (not specified), cells shown as percentage.
[6] abbreviates: method AA1 (90 μM ATP) or AA2 (1000 μM ATP), not stated per value.
Where [7] appears, read: method AA1 (3 μM ATP) or AA2 (1000 μM ATP), not stated per value.
Where [8] appears, read: method AA1 (30 μM ATP) or AA2 (1000 μM ATP), not stated per value.
Where [9] appears, read: compound at 500 nM or 1 mM, 90 μM ATP.
Where [10] appears, read: Table B1, cells without percent sign.

The results in this text go back to patent US8871753B2, “Macrocyclic compounds and their use as kinase inhibitors” (Incyte Corporation, priority 2008, dated 2014).

Structures can show the parent of a compound that is named as a salt. Where two headings read alike, the source gives them in different places. Bounds are passed on as bounds.

In general, IC50 refers to the concentration needed to halve the response being measured.

T1 sequence (P23458 849-1154): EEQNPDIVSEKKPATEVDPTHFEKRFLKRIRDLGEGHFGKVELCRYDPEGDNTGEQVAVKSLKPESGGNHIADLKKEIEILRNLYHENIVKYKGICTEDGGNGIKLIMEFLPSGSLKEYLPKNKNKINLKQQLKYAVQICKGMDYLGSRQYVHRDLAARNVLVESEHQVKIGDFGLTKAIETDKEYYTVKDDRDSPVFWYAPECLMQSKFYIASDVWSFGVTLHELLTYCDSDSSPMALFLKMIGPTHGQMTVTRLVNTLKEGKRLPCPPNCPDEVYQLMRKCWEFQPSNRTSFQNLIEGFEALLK
TYK2, sequence (P29597 whole entry): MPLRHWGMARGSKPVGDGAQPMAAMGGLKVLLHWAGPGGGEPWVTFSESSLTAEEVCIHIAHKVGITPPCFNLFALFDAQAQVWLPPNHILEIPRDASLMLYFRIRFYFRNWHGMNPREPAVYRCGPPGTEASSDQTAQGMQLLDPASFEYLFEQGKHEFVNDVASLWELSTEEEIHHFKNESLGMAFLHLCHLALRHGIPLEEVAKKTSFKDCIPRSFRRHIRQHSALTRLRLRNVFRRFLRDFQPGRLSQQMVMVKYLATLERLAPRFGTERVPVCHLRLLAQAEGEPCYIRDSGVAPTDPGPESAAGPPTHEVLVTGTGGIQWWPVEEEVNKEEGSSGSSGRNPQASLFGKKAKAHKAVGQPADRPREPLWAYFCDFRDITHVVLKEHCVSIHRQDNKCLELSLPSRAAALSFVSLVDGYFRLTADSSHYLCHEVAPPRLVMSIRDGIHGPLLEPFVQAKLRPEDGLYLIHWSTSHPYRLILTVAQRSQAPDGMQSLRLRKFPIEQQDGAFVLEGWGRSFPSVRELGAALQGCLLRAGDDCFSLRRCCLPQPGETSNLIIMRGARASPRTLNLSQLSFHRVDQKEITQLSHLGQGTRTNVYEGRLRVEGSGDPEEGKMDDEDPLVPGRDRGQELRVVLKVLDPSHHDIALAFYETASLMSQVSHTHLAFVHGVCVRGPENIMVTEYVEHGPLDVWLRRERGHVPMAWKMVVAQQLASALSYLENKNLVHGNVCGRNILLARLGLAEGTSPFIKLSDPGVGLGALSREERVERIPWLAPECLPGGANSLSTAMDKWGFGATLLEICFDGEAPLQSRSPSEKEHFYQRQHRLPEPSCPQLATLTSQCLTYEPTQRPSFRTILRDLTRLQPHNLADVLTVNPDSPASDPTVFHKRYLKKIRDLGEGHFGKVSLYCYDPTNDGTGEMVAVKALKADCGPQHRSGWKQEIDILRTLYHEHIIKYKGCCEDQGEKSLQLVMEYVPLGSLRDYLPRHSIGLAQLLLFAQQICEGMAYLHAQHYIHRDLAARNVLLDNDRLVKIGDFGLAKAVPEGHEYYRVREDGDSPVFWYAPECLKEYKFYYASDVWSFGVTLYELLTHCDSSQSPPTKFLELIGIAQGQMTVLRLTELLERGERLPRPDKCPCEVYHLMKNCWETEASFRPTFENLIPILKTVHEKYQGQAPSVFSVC
T4 sequence (Q9UM73 19-1620): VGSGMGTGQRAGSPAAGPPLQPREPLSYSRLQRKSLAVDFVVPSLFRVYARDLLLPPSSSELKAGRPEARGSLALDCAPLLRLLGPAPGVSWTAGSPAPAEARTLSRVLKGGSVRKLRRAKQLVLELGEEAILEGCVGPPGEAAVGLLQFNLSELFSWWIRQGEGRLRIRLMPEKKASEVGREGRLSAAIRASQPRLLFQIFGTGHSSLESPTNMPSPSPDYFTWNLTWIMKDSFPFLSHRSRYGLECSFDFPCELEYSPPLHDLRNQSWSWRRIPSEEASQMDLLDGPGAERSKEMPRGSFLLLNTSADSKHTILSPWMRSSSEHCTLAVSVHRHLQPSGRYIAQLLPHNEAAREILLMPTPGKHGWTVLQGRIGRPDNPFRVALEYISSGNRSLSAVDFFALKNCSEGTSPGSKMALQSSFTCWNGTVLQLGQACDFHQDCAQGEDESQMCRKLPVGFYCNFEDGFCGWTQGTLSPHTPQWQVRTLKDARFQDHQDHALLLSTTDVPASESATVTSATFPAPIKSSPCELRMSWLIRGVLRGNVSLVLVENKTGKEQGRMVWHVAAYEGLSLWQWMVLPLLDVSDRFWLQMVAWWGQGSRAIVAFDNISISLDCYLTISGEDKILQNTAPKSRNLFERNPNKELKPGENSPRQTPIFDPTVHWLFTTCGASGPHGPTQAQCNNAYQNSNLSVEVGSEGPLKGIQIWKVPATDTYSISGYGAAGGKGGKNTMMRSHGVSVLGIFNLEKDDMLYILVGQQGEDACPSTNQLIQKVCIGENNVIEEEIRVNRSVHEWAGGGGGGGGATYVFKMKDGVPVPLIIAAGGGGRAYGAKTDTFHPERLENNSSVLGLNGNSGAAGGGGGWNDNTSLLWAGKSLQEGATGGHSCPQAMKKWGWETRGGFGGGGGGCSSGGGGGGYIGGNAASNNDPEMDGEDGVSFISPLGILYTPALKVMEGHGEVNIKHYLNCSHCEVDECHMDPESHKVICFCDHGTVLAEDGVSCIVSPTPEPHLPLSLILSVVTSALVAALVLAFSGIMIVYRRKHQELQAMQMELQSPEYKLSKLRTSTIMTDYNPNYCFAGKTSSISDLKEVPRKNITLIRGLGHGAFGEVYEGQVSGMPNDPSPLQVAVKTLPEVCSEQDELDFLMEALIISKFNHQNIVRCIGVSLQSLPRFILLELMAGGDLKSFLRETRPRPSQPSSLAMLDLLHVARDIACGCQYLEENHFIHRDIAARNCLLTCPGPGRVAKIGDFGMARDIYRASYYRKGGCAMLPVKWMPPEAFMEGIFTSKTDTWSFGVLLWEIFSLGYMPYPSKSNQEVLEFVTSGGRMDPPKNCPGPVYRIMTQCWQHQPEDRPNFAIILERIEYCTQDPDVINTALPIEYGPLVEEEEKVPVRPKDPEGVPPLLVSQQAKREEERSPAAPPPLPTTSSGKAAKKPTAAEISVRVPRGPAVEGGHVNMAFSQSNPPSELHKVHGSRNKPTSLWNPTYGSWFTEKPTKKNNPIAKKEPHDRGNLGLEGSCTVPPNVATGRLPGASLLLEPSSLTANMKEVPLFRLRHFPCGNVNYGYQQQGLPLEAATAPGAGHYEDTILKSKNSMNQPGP

For `Clc1cnc2nc1Nc1ccc(Nc3nccc(-c4ccccc4)n3)c(c1)CCc1cccc(c1)N2` [Example B279, 6-Chloro-N-(4-phenylpyrimidin-2-yl)-2,4,8,22-tetraazatetracyclo[14.3.1.1(3,7).1(9,13)]docosa-1(20),3(22),4,6,9(21),10,12,16,18-nonaen-12-amine tris(trifluoroacetate)], the IC50 was 549 nM at TYK2 (Table B1), 86 nM in experiment [1] (Table B1), more than 10000 nM in experiment [2] (Table B1) and 158 nM in experiment [3] (Table B1). For the same compound, the “ALK % of inhibition at a concentration of 500 nM or 1 mM” value (“ALK % of inhibition” for short) in experiment [4] (setting [5]) is recorded as 0.76%.

On to `O=C(Nc1cccc(N2CCOCC2)n1)Nc1ccc2cc1CCc1cccc(c1)Nc1ncc(Cl)c(n1)N2` [Example B133, N-[6-Chloro-2,4,8,22-tetraazatetracyclo[14.3.1.1(3,7).1(9,13)]docosa-1(20), 3(22),4,6,9(21),10,12,16,18-nonaen-12-yl]-N′-(6-morpholin-4-ylpyridin-2-yl)urea bis(trifluoroacetate)], for which the half-maximal inhibitory concentration (IC50) amounted to 288 nM at TYK2 (Table B1), 44 nM in experiment [1] (Table B1), 376 nM in experiment [2] (Table B1) and 85 nM in experiment [3] (Table B1). In addition, the “ALK % of inhibition” value in experiment [4] (setting [5]) is on record as 2.5%.

For the compound `O=C(NCCNS(=O)(=O)c1ccccc1)Nc1ccc2cc1CCc1cccc(c1)Nc1ncc(Cl)c(n1)N2` [Example B329, N-{2-[({[6-Chloro-2,4,8,22-tetraazatetracyclo[14.3.1.1(3,7).1(9,13)]docosa-1(20),3(22),4,6,9(21),10,12,16,18-nonaen-12-yl]amino}carbonyl)amino]ethyl}benzenesulfonamide trifluoroacetate], the IC50 on TYK2 (Table B1) amounted to 5.8 nM; in experiment [1] (Table B1), 3 nM; in experiment [2] (Table B1), 6.5 nM; in experiment [3] (Table B1), 3.2 nM. Further, the “ALK % of inhibition” value in experiment [4] (percentage inhibition of the example compound at a concentration of 500 nM or 1 mM (not specified which)) was 20%.

As for `CN(C(=O)Nc1ccc2cc1CCc1cncc(c1)Nc1ncc(Cl)c(n1)N2)[C@H]1CCN(C(=O)c2ccccc2)C1` [Example B291, N-[(3S)-1-Benzoylpyrrolidin-3-yl]-N′-[6-chloro-2,4,8,18,22-pentaazatetracyclo[14.3.1.1(3,7).1(9,13)]docosa-1(20),3(22),4,6,9(21),10,12,16,18-nonaen-12-yl]-N-methylurea bis(trifluoroacetate)], the IC50 against TYK2 (Table B1) was 199 nM; in experiment [1] (Table B1) it was 28 nM; in experiment [2] (Table B1), more than 200 nM; in experiment [3] (Table B1) it was 100 nM. Moreover, the “ALK % of inhibition” value in experiment [4] (setting [5]) came to 58%.

For `O=C(CC1CCN(c2ccncc2F)CC1)Nc1ccc2cc1CCc1cncc(c1)Nc1ncc(Cl)c(n1)N2` [Example A243, N-[6-Chloro-2,4,8,18,22-pentaazatetracyclo[14.3.1.1(3,7).1(9,13)]docosa-1(20),3(22),4,6,9(21),10,12,16,18-nonaen-12-yl]-2-[1-(3-fluoropyridin-4-yl)piperidin-4-yl]acetamide tris(trifluoroacetate)], the IC50 was 235 nM at TYK2, 20 nM in experiment [1] (setting [6]), more than 400 nM in experiment [2] (setting [7]) and 119 nM in experiment [3] (setting [8]). Further, in experiment [4] (setting [9]), the “ALK % of inhibition” value is reported as 38%.

`O=C(NC1CCCC1)N1CCN(c2cc(-c3cc4cc(c3)Nc3ncc(Cl)c(n3)Nc3cccc(c3)OCC4)ccn2)CC1` [Example D46, 4-{4-[6-Chloro-14-oxa-2,4,8,23-tetraazatetracyclo[15.3.1.1(3,7).1(9,13)]tricosa-1(21),3(23),4,6,9(22),10,12,17,19-nonaen-19-yl]pyridin-2-yl}-N-cyclopentylpiperazine-1-carboxamide bis(trifluoroacetate)]: the IC50 turned out to be 8.2 nM at TYK2 (Table D1); 4.7 nM in experiment [1] (Table D1); 21 nM in experiment [2] (Table D1); 0.9 nM in experiment [3] (Table D1); 390 nM in experiment [4] (Table D1, 90 μM ATP).

As for `CCOc1ccccc1NC(=O)Nc1ccc2cc1CCc1cccc(c1)Nc1ncc(Cl)c(n1)N2` [Example B106, N-[6-Chloro-2,4,8,22-tetraazatetracyclo[14.3.1.1(3,7).1(9,13)]docosa-1(20), 3(22),4,6,9(21),10,12,16,18-nonaen-12-yl]-N′-(2-ethoxyphenyl)urea trifluoroacetate], the half-inhibitory concentration (IC50) on TYK2 (Table B1) worked out at 18 nM; in experiment [1] (Table B1) it was 4.3 nM; in experiment [2] (Table B1), 90 nM; in experiment [3] (Table B1) it was 9.6 nM. Besides, the “ALK % of inhibition” value in experiment [4] (setting [5]) was 5.7%.

On to `O=C(Nc1ccc(Cl)cc1)Nc1ccc2cc1CCc1cccc(c1)Nc1ncc(Cl)c(n1)N2` [Example B86, N-(4-Chlorophenyl)-N′-[6-chloro-2,4,8,22-tetraazatetracyclo[14.3.1.1(3,7).1(9,13)]docosa-1(20),3(22),4,6,9(21),10,12,16,18-nonaen-12-yl]urea trifluoroacetate], for which the half-maximal inhibitory concentration (IC50) at TYK2 (Table B1) was 6.4 nM; in experiment [1] (Table B1), 2.7 nM; in experiment [2] (Table B1) it was 27 nM; in experiment [3] (Table B1) it was 2.6 nM; in experiment [4] (setting [10]), more than 1000 nM.

As for `CC(C)(C)NC(=O)Nc1ccc2cc1CCc1cccc(c1)Nc1ncc(Cl)c(n1)N2` [Example B87, N-(tert-Butyl)-N′-[6-chloro-2,4,8,22-tetraazatetracyclo[14.3.1.1(3,7).1(9,13)]docosa-1(20),3(22),4,6,9(21),10,12,16,18-nonaen-12-yl]urea trifluoroacetate], the IC50 at TYK2 (Table B1) is 16 nM; in experiment [1] (Table B1), 5.3 nM; in experiment [2] (Table B1), 42 nM; in experiment [3] (Table B1), 4.5 nM; in experiment [4] (setting [10]) it was more than 1000 nM.

In the case of `O=C(CC1CCN(c2nncs2)CC1)Nc1ccc2cc1CCc1cncc(c1)Nc1ncc(Cl)c(n1)N2` [Example A174, tris(trifluoroacetate)], the IC50 was 72 nM at TYK2, 4.1 nM in experiment [1] (setting [6]), more than 1000 nM in experiment [2] (setting [7]) and 124 nM in experiment [3] (setting [8]). The “ALK % of inhibition” value in experiment [4] (setting [9]) turned out to be 33%.

On to `O=C(Nc1ccccc1CCl)Nc1ccc2cc1CCc1cccc(c1)Nc1ncc(Cl)c(n1)N2` [Example B108, N-[2-(Chloromethyl)phenyl]-N′-[6-chloro-2,4,8,22-tetraazatetracyclo[14.3.1.1(3,7).1(9,13)]docosa-1(20),3(22),4,6,9(21),10,12,16,18-nonaen-12-yl]urea trifluoroacetate], for which the IC50 against TYK2 (Table B1) worked out at 2.1 nM; in experiment [1] (Table B1), 1.6 nM; in experiment [2] (Table B1), 23 nM; in experiment [3] (Table B1), 4.6 nM. Besides, the “ALK % of inhibition” value in experiment [4] (setting [5]) is 21%.

For `COCC(=O)Nc1ccc2cc1CCc1cccc(c1)Nc1ncc(Cl)c(n1)N2` [Example B28, N-[6-Chloro-2,4,8,22-tetraazatetracyclo[14.3.1.1(3,7).1(9,13)]docosa-1(20), 3(22),4,6,9(21),10,12,16,18-nonaen-12-yl]-2-methoxyacetamide trifluoroacetate], the IC50 turned out to be 20 nM on TYK2 (Table B1); 8.2 nM in experiment [1] (Table B1); 10 nM in experiment [2] (Table B1); 4.1 nM in experiment [3] (Table B1); 1800 nM in experiment [4] (setting [10]).

Consider `O=C(Nc1ccc2cc1CCc1cccc(c1)Nc1ncc(Cl)c(n1)N2)[C@@H]1CCCN1` [Example A110, (2S)—N-[6-Chloro-2,4,8,22-tetraazatetracyclo[14.3.1.1(3,7).1(9,13)]docosa-1(20),3(22),4,6,9(21),10,12,16,18-nonaen-12-yl]pyrrolidine-2-carboxamide bis(trifluoroacetate)], for which the IC50 at TYK2 came out at 15 nM; in experiment [1] (setting [6]) it was 32 nM; in experiment [2] (setting [7]), 14 nM; in experiment [3] (setting [8]), 26 nM. Besides, in experiment [4] (setting [9]), the “ALK % of inhibition” value is given as 45%.

Regarding `O=C(Nc1cc2cc(c1)OCCSc1cccc(c1)Nc1nc(ncc1Cl)N2)c1ccno1` [Example D59, N-[6-Chloro-17-oxa-14-thia-2,4,8,24-tetraazatetracyclo[16.3.1.1(3,7).1(9,13)]tetracosa-1(22),3(24),4,6,9(23),10,12,18,20-nonaen-20-yl]isoxazole-5-carboxamide trifluoroacetate], the half-inhibitory concentration (IC50) against TYK2 (Table D1) amounted to 2.1 nM; in experiment [1] (Table D1), 2.3 nM; in experiment [2] (Table D1), 7.1 nM; in experiment [3] (Table D1), 0.6 nM; in experiment [4] (Table D1, 90 μM ATP), 200 nM.

Turning to `Clc1cnc2nc1Nc1cccc(c1)OCCNc1cccc(c1)N2` [Example D70, 6-Chloro-14-oxa-2,4,8,17,24-pentaazatetracyclo[16.3.1.1(3,7).1(9,13)]tetracosa-1(22),3(24),4,6,9(23),10,12,18,20-nonaene bis(trifluoroacetate)], the concentration for half-maximal inhibition (IC50) came to 5 nM against TYK2 (Table D1); 9 nM in experiment [1] (Table D1); 8.1 nM in experiment [2] (Table D1); 2.1 nM in experiment [3] (Table D1); 375 nM in experiment [4] (Table D1, 90 μM ATP).
